Marks after values point to notes of the source that are not given here.

For one test, the target named is T1, chicken ST6GalNAc-I (Gallus gallus, UniProt Q92183).
T1 construct: made in house; host or cells: insect cells
The experiment in a line: chST6GalNAc-I activity on small acceptor molecules. To be noted: α-D-galacto derivatives as acceptors. In kind it is biochemical. An excerpt:
The inventors have previously reported the cloning, expression, and characterization of chicken ST6GalNAc-I and its use in preparative synthesis of the O-linked sialoside antigens, STn-, α(2-6)SiaT-, α(2-3)SiaT- and Di-SiaT-antigen. Blixt, O.; Allin, K.; Pereira, L.; Datta, A. and Paulson, J. C., J. Am. Chem. Soc. 2002, 124, 5739-5746. Briefly, the recombinant enzyme was expressed in insect cells and purified by CDP-sepharose affinity chromatography to generate approximately 10 U/L of cell culture.

In test [1] the test system is 2G12 antibody. The experiment in a line: Carbohydrate microarray analysis of oligomannose-2G12 binding (microtiter plate). The arrangement: species or system human. On the procedure:
Carbohydrate microarray analysis. Ninety-six well NHS-coated microtiter plates (NoAb Biodiscoveries) were treated with 200 μL of a 1 mM methanolic solution of the amino-functionalized disulfide and alkyne containing linker (scheme V) containing 5% diisopropylethylamine (DIEA) and incubated overnight at 4° C. The microtiter plate was then washed with 2×200 μL methanol and 2×200 μL water. Next, 200 μL solutions of azido-functionalized oligomannose derivatives 21-25 at varying concentrations from 0 to 500 μM in 5% DIEA/methanol were introduced. A sprinkle of copper (I) iodide was added and the contents were allowed to react overnight at 4° C. The next day, the contents were removed and the plates were washed with 2×200 μL methanol and 2×200 μL water. The plates were then blocked with 0.1% Tween20 solution in HEPES buffer pH 7.5 at 4° C. for 1 hour and then washed with 3×200 μL HEPES buffer. […] Detection of the FITC-tagged secondary antibody was performed in 200 μL water using a fluorescence plate reader. […]
Carbohydrate Microarray Analysis. […] Kd values for the interaction of 2G12 with oligomannoses 4, 5, 7, 8, 9 (Table 9) were determined using a microtiter-based assay with detection via a fluorescent secondary antibody (see Bryan et al. (2004) J. Am. Chem. Soc. 126, 8640-41).

The next test has as its system 2G12 anti-HIV antibody. The experiment in a line: 2G12 binding to glycan array printed on glass slide. The arrangement: species or system human. To be noted: for 2G12 binding on glycan array (in words): initial experiments; for Rel. spec. (relative binding activity of 2G12): glass slide glycan array, 2G12 pre-complexed with anti-IgG-FITC. On the procedure: Construction of a glycan array printed on a glass slide: The library of carbohydrate structures was obtained through chemical and chemo-enzymatic synthesis as described above, as well as natural sources. This compound library contained a N-hydroxy succinimide (NHS)-reactive primary amino group, which was printed on a commercial NHS-activated glass surface (Accelr8 Technology Corporation, Denver, Colo.) using a microarray gene printer (TSRI).
Each glycan type was printed (≈0.5 nL/spot) at various concentrations (10-100 μM) and each concentration in a replicate of six. Slides were further incubated with ethanolamine buffer to deactivate remaining NHS functional groups.
The 2G12 antibody was pre-complexed (for 10 min) with secondary human anti-IgG-FITC (2:1, 20 μg/mL) prior to application to the glycan array. After incubation with the 2G12 antibodies, the array washed by dipping the slide in buffer and water.

Test [2] concerns 2G12 antibody. The experiment in a line: 2G12 binding, cleavable linker glycan array in microtiter plates. The arrangement: species or system human. How it is done:
Cleavable Linker Glycan Array in Microtiter Plates: Further experiments were performed using glycans immobilized within microtiter wells with the cleavable triazole linkers described in Example 7 as shown in FIG. 11.
2G12 Binding: After washing with QH2O, wells were blocked with 10 mM HEPES buffer, pH 7.5/150 mM NaCl buffer (200 μL) containing 0.1% Tween-20 over 1 h at 4° C. The buffer was then removed and 2G12 (17 μg/mL PBS buffer; 200 μL) was incubated in the well over 1 h at 4° C. Wells were then washed with PBS buffer (3×; 200 μL) and fluorescein-conjugated Goat Anti-Human IgG antibody (14 μg/mL PBS buffer; 200 μL) was incubated in the well over 1 h in the dark at 4° C. Wells were then washed with PBS buffer (3×; 200 μL) and fluorescence was measured with an excitation wavelength of 485 nm and emission wavelength of 535 nm.
Further studies were performed using a cleavable linker array to clarify the types of mannose-containing glycans bound by the 2G12 anti-HIV antibodies. […] The results of a binding study using increasing amounts of labeled Manα1,2Manα1,3Manα1,2 Manα1,6Man glycan with a constant amount of 2G12 antibody are shown in FIG. 16.

The next test relates to β3GlcNAcT. Nature of the test: β3GlcNAcT acceptor specificity. In kind it is biochemical, N. meningitidis. To be noted: as acceptor substrate; lactose (4) = 100%. How it is done:
Both enzymes, β4GalT-GalE and β3GlcNAcT, were over expressed in E. coli AD202 in a large-scale fermentor (100 L). Bacteria were cultured in 2YT medium and induced with iso-propyl-thiogalactopyranoside (IPTG) to ultimately produce 8-10 g of bacterial cell paste/L cell media. The enzymes were then released from the cells by a microfluidizer and were solubilized in Tris buffer (25 mM, pH 7.5) containing manganese chloride (10 mM) and Triton X (0.25%) to reach enzymatic activities of about 50 U/L and 115 U/L of cell culture β4GalT-GalE and β3GlcNAcT, respectively.
The structures of these disaccharides are provided below. [drawing 17]
Adding the hydrophobic para-nitrophenyl ring as an aglycon to the reducing end of the acceptors enhanced the activity of the enzyme up to 10 fold (compare 4 with 5 and 6 with 7). The increase in the enzyme activity by adding a hydrophobic aglycon to the acceptor sugar, though to the lesser extent, has also been shown for β4GalT (compare 12 with 13, 14). The relaxed substrate specificity of these enzymes makes them very useful for preparative synthesis of various carbohydrate structures, including poly-N-acetyllactosamines.

T1 sequence (Q92183 whole entry): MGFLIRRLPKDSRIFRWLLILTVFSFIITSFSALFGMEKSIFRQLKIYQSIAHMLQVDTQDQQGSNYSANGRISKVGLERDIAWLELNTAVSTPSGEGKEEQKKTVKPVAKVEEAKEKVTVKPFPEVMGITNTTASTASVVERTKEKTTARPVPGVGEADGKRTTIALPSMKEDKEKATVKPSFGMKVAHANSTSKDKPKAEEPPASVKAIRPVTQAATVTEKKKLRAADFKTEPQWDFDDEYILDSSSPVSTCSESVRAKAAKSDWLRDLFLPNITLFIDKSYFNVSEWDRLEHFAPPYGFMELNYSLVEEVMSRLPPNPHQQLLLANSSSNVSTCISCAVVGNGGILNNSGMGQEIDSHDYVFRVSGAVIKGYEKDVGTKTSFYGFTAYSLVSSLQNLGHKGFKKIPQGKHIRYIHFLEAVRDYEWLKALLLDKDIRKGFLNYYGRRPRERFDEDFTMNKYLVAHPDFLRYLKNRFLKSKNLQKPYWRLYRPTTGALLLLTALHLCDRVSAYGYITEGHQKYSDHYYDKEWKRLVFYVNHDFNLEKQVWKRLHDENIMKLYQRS

In the case of `CC(=O)N[C@@H]1[C@@H](O)[C@@H](O)[C@@H](CO)O[C@@H]1O` [D-GaINAc, reference compound], on chicken ST6GalNAc-I, the “chST6GalNAc-I activity, cpm” value is 0 cpm and the “chST6GalNAc-I activity, nmol/mg x min^−1” value turned out to be 0.00 nmol/mg x min^−1. Turning to `NCCCCCO[C@H]1O[C@H](CO[C@H]2O[C@H](CO)[C@@H](O)[C@H](O)[C@@H]2O[C@H]2O[C@H](CO)[C@@H](O)[C@H](O)[C@@H]2O)[C@@H](O)[C@H](O[C@H]2O[C@H](CO)[C@@H](O)[C@H](O)[C@@H]2O[C@H]2O[C@H](CO)[C@@H](O)[C@H](O)[C@@H]2O)[C@@H]1O` [Oligomannose 5], the “2G12 affinity ranking (in words)” value with 2G12 antibody [1] is “greatest affinity”. Take Man-8#aa Man8-aminoacid [Glycan 144]: the “2G12 binding on glycan array (in words)” value in the test with 2G12 anti-HIV antibody is “Binding was observed”. With Manα1,2Manα1,3Manα1,2 Manα1,6Man, in the test on 2G12 antibody [2], the “2G12 epitope/affinity (in words)” value is listed as “optimal epitope(s) with micromolar affinity to 2G12”.

As for `OCC1O[C@@H](O)C(O)[C@@H](O)[C@@H]1O[C@@H]1OC(CO)[C@H](O)[C@H](O)C1O` (stereo partly shown) [Compound 4], the “Relative enzyme activity (%) β(1-3)GlcNAcT-activity” value with β3GlcNAcT is reported as 100%. Moreover, the “chST6GalNAc-I activity, nmol/mg x min^−1” value on chicken ST6GalNAc-I stood at 2.90 nmol/mg x min^−1. Further, the “Rel. spec. (relative binding activity of 2G12)” value in the test with 2G12 anti-HIV antibody is “− (- = <1000)”. `O=[N+]([O-])c1ccc(O[C@@H]2OC(CO)[C@@H](O[C@@H]3OC(CO)[C@H](O)[C@H](O)C3O)[C@H](O)C2O)cc1` (stereo partly shown) [Compound 5]: the “chST6GalNAc-I activity, nmol/mg x min^−1” value at chicken ST6GalNAc-I was determined as 1.30 nmol/mg x min^−1. The “Rel. spec. (relative binding activity of 2G12)” value in the test with 2G12 anti-HIV antibody is on record as “− (- = <1000)”. With Man-9#aa Man9-aminoacid [Glycan 145], in the test on 2G12 anti-HIV antibody, the “2G12 binding on glycan array (in words)” value was “smaller level of binding”. What is called Kd is a measure of binding affinity in units of concentration. The low end stands for higher affinity, the high end for lower affinity. As for Manα1,2 Manα1,2 Manα1,3Man, in the test with 2G12 antibody [2], the “2G12 epitope/affinity (in words)” value is “optimal epitope(s) with micromolar affinity to 2G12” and the Kd was 100 nM. For `CC(=O)N[C@H]1C(O)O[C@H](CO)[C@@H](O[C@@H]2O[C@H](CO)[C@H](O)[C@H](O)[C@H]2O)[C@@H]1O` (stereo partly shown) [Compound 6], the “Relative enzyme activity (%) β(1-3)GlcNAcT-activity” value in the test on β3GlcNAcT stood at 7%. For the same compound, on chicken ST6GalNAc-I, the “chST6GalNAc-I activity, nmol/mg x min^−1” value was 12.50* nmol/mg x min^−1. Further, in the test with 2G12 anti-HIV antibody, the “Rel. spec. (relative binding activity of 2G12)” value is “− (- = <1000)”.

For the origin of these results see patent publication US20070213297A1, “Arrays with cleavable linkers” (priority 2004, published 2007).
